The values that follow come from US8852860B2, “Sperm-specific cation channel, CatSper1 and uses therefor” (Children's Medical Center Corporation, priority 2001, dated 2014).

For assay [1], the system named is caudal epididymal wild-type sperm. Kind of assay: Ca2+ imaging of Fluo-4 loaded sperm, wild-type. In kind it is cell-based, mouse. As to the method:
(§1) For Ca^2+ imaging, sperm were prepared in HS medium (Wennemuth, et al. (2000), J Biol Chem 275, 21210-7) and loaded with 10 μM Fluo-4-AM and 0.05% Pluronic F-127 for 30 min. at room temperature. Washed cells were seeded onto Cell-Tak coated cover slips. Attached motile sperm were imaged in nonconfocal mode to avoid motion-induced fluorescence change artifacts. The 488 nm wavelength beam of an Argon-Krypton laser was used for excitation and fluorescence emission was collected at 512 nm (Zeiss LSM 410).
(§2) Wild-type and mutant sperm were loaded with Fluo-4 and their fluorescence measured by single photon confocal microscopy.

The next assay deals with CatSper1^−/− sperm. Briefly: Ca2+ imaging of Fluo-4 loaded sperm, CatSper1-/- mutant. In kind it is cell-based, mouse. As to the method: as §1, §2

With `CC(=O)[C@H]1CC[C@H]2[C@@H]3CCC4=CC(=O)CC[C@]4(C)[C@H]3CC[C@]12C` [progesterone], the “Ca^2+ influx (control for dye loading), wild-type sperm” value in assay [1] (wild-type sperm) is “initiated a large Ca^2+ influx”. Besides, in the assay with CatSper1^−/− sperm, the “Ca^2+ influx (control for dye loading), mutant sperm” value was “initiated a large Ca^2+ influx”.
`O=C([O-])O.[Na+]` [sodium bicarbonate]: the “[Ca^2+]i increase on addition to the bath” value in assay [1] (20 mM in bath) is “induced an increase in [Ca^2+]i that was smaller than that observed with cyclic AMP or GMP”.
In the case of `Nc1nc2c(nc(Br)n2[C@@H]2O[C@@H]3COP(=O)(O)O[C@H]3[C@H]2O)c(=O)[nH]1` [8-Br-cGMP], the “sperm head and tail [Ca^2+]i change (Fluo-4 fluorescence)” value in assay [1] (wild-type sperm, 1 mM membrane-permeant cyclic nucleotide in bath) is given as “initiated Ca^2+ influx in sperm”. Also, the “cyclic nucleotide-induced Ca^2+ influx in mutant sperm” value with CatSper1^−/− sperm is listed as “neither cAMP nor cGMP elicited significant Ca^2+ influx”.
For the compound `CN[C@@H]1C[C@H]2O[C@@](C)([C@@H]1OC)n1c3ccccc3c3c4c(c5c6ccccc6n2c5c31)C(=O)NC4` [staurosporine], the “block of cyclic AMP and cyclic GMP induced [Ca^2+]i increase” value in assay [1] (sperm incubated with 1 μM, 10 minutes) is listed as “not blocked”.
